# Results published in PMC11428215, “Unveiling a New Antimicrobial Peptide with Efficacy against P. aeruginosa and K. pneumoniae from Mangrove-Derived Paenibacillus thiaminolyticus NNS5-6 and Genomic Analysis” (Antibiotics, 2024).
# Read-outs that look alike come from different tables or passages of the source. No end group written: not given here.
# Assays:
# [1] = system: P. aeruginosa TISTR 357; type: cell-based, Pseudomonas aeruginosa; conditions: TISTR 357, 24 h
# Method: (§1) The MIC and MBC of the purified AMP were determined using the broth microdilution method following the guidance provided by the Clinical and Laboratory Standards Institute (CLSI). P. aeruginosa TISTR 357 and K. pneumoniae TISTR 1383 were cultured on MH agar and incubated at 37 °C for 18 h. A single colony of the tested bacteria was suspended in 0.85% NaCl until the suspension turbidity reached an OD of 0.1 at 625 nm. The cells were then diluted to 5 × 10^6 CFU/mL using cation-adjusted Mueller Hinton broth (CAMHB). The diluted cell suspension of 10 µL was transferred into each well of a 96-well plate with a final volume of 100 µL per well. The AMP was added to achieve final concentrations ranging from 0.125 to 64 µg/mL. Colistin was used as the positive control, while antibiotic-free samples were used as negative controls. The 96-well plate was incubated at 37 °C for 24 h. Each strain was tested in triplicate. […] Subsequently, 100 µL of each dilution was spread on MH agar and then incubated at 37 °C for 24 h. The MBC was identified as the lowest concentration at which no bacterial colony growth was observed on the agar plate.
# [2] = system: K. pneumoniae TISTR 1383; type: cell-based, Klebsiella pneumoniae; conditions: TISTR 1383, 24 h
# Method: as §1
# [3] = system: P. aeruginosa TISTR 357; experiment: Time-kill assay; type: cell-based, Pseudomonas aeruginosa; conditions: for reduction rate of viable cells: from initial treatment until eradication, 5 × 10^5 CFU/mL, CAMHB, 37 °C
# Method: (§2) P. aeruginosa TISTR 357 and K. pneumoniae TISTR 1383 were separately adjusted to an initial treatment cell density of 5 × 10^5 CFU/mL with CAMHB. The experiment preparation followed the microdilution assay procedures. […] The reactions were carried out at 37 °C, followed by spreading the entire volume from each well in each treatment condition on MH agar at specific time intervals (0–24 h). The plates were placed in a 37 °C incubator for 24 h before counting the colonies. The trends in bacterial reduction were graphically depicted using a logarithmic scale of viable cells. The bacterial cell reduction was determined within 24 h. Each experiment was performed in triplicate on the 96-well plates.
# [4] = system: K. pneumoniae TISTR 1383; experiment: Time-kill assay; type: cell-based, Klebsiella pneumoniae; conditions: for reduction rate of viable cells: 5 × 10^5 CFU/mL, CAMHB, 37 °C
# Method: as §2
# [5] = system: K. pneumoniae TISTR 1383; experiment: Sytox Green uptake assay (cell membrane permeability); type: cell-based, Klebsiella pneumoniae; conditions: 2× MIC; Sytox Green 10 µM, over 24 h; mean ± SD, triplicate
# Method: The cell suspension was diluted with the diluent until the OD at 625 nm was equal to 0.1 (1.5 × 10^8 CFU/mL). An aliquot of the diluted cells (100 μL) was introduced into each well and incubated with 10 μM of Sytox Green (Thermo Fisher Scientific Inc., Waltham, MA, USA) in the dark for 15 min. […] After the introduction of the AMP, the cell membrane permeability of treated bacteria was evaluated by monitoring the fluorescence intensity resulting from the penetration of Sytox Green across the compromised cell membrane and subsequently binding to nucleic acid. […] Significant differences in fluorescence intensity of overall time points were analyzed by one-way ANOVA (p-value < 0.05) and post hoc Tukey’s test for multiple comparisons between treated and non-treated conditions [52].
# [6] = system: P. aeruginosa TISTR 357; experiment: Stability against temperatures, residual antibacterial activity; type: physicochemical, Pseudomonas aeruginosa; conditions: AMP 16 µg/mL, agar well diffusion read-out, % of non-treated AMP, mean ± SD, n = 3
# Method: (§3) The AMP was dissolved in sterile purified water and adjusted a final concentration to 16 µg/mL. The sensitivity of the AMP to temperatures of 37, 40, 50, 60, 80, and 100 °C, as well as autoclaving at 121 °C for 15 and 30 min was evaluated. The sensitivity of the AMP to proteolytic enzymes with different digesting characteristics was studied by incubating with a concentration of 1 mg/mL of proteinase K, trypsin, and α-chymotrypsin (Sigma-Aldrich, Warren, MI, USA). The compatibility of the AMP with surfactants was evaluated by exposing the AMP to 1% SDS or 1% Triton X-100 (AppliChem GmbH, Darmstadt, Germany). The degradation of the AMP under various pH conditions, including physiological and extended alkaline conditions, was evaluated by adjusting the pH of the solution to 1.2, 4.5, 6.8, 7.4, 8.0, 10.0, 12.0, and 14.0. After incubation, the pH of the AMP solution was neutralized to the original pH before being assessed for antibacterial activity. The antibacterial assay against P. aeruginosa TISTR 357 was conducted using the agar well diffusion assay in triplicate. The stability profiles are presented as the percentage of the residual activity compared with the non-treatment conditions (mean ± SD), and statistical significance was determined by the Student’s t-test at a p-value < 0.05.
# [7] = system: P. aeruginosa TISTR 357; experiment: Compatibility with surfactants, residual antibacterial activity; type: physicochemical, Pseudomonas aeruginosa; conditions: AMP 16 µg/mL, agar well diffusion read-out, % of non-treated AMP, mean ± SD, n = 3
# Method: as §3
# [8] = system: P. aeruginosa TISTR 357; experiment: Stability against pH, residual antibacterial activity; type: physicochemical, Pseudomonas aeruginosa; conditions: neutralized before assay, AMP 16 µg/mL, agar well diffusion read-out, % of non-treated AMP, mean ± SD, n = 3
# Method: as §3
# [9] = biological target: Proteinase K (Parengyodontium album, UniProt P06873); conditions: Proteinase K 1 mg/mL, AMP 16 µg/mL, agar well diffusion read-out, % of non-treated AMP, mean ± SD, n = 3
# Method: as §3
# [10] = biological target: α-chymotrypsin (Bos taurus, UniProt P00766); conditions: α-chymotrypsin 1 mg/mL, AMP 16 µg/mL, agar well diffusion read-out, % of non-treated AMP, mean ± SD, n = 3
# Method: as §3
# Sequence of Proteinase K (P06873 106-384): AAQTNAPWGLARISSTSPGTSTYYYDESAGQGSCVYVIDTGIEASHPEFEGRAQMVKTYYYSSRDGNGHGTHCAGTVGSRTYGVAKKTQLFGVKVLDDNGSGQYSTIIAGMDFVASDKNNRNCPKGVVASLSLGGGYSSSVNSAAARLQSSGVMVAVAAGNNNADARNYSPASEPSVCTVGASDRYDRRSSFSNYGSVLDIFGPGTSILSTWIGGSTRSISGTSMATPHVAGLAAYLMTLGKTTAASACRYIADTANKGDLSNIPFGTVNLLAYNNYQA
sequence,measurement,setting,value
VKGDGGPGTVYTM [NNS5-6 AMP],MBC,[1],4 µg/mL
same,MIC,[1],4 µg/mL
same,MBC,[2],8 µg/mL
same,MIC,[2],4 µg/mL
same,reduction rate of viable cells,[3]; 1× MIC,0.6297 log CFU/h
same,treatment time to eradication of viable cells,[3]; 1× and 2× MIC,8 h
same,reduction rate of viable cells,[3]; 2× MIC,0.6421 log CFU/h
same,reduction of viable cells,"[4]; 1× MIC, until 24 h of treatment, growth only suppressed",up to 2 log (CFU/mL)
same,reduction rate of viable cells,[4]; 1× MIC,0.0579 log CFU/h
same,treatment time to eradication of viable cells,[4]; 2× MIC,≤ 8 h
same,reduction rate of viable cells,[4]; 2× MIC,0.5715 log CFU/h
same,fold increase in fluorescence intensity compared with non-treatment,[5],3.21 ± 0.29 fold
same,% Residual Activity of NNS5-6 AMP against P. aeruginosa TISTR 357,"[6]; 37 °C, 1 h",99.39 ± 1.98%
same,% Residual Activity of NNS5-6 AMP against P. aeruginosa TISTR 357,"[6]; 37 °C, 6 h",99.39 ± 0.61%
same,% Residual Activity of NNS5-6 AMP against P. aeruginosa TISTR 357,"[6]; 37 °C, 12 h",99.69 ± 0.95%
same,% Residual Activity of NNS5-6 AMP against P. aeruginosa TISTR 357,"[6]; 40 °C, 1 h",99.80 ± 0.94%
same,% Residual Activity of NNS5-6 AMP against P. aeruginosa TISTR 357,"[6]; 40 °C, 6 h",99.19 ± 0.93%
same,% Residual Activity of NNS5-6 AMP against P. aeruginosa TISTR 357,"[6]; 40 °C, 12 h",99.07 ± 0.72%
same,% Residual Activity of NNS5-6 AMP against P. aeruginosa TISTR 357,"[6]; 50 °C, 1 h",65.16 ± 3.07 %
same,% Residual Activity of NNS5-6 AMP against P. aeruginosa TISTR 357,"[6]; 50 °C, 6 h",0.00 ± 0.00 %
same,% Residual Activity of NNS5-6 AMP against P. aeruginosa TISTR 357,"[6]; 50 °C, 12 h",0.00 ± 0.00 %
same,% Residual Activity of NNS5-6 AMP against P. aeruginosa TISTR 357,"[6]; 60 °C, 1 h",0.00 ± 0.00 %
same,% Residual Activity of NNS5-6 AMP against P. aeruginosa TISTR 357,"[6]; 60 °C, 6 h",0.00 ± 0.00 %
same,% Residual Activity of NNS5-6 AMP against P. aeruginosa TISTR 357,"[6]; 60 °C, 12 h",0.00 ± 0.00 %
same,% Residual Activity of NNS5-6 AMP against P. aeruginosa TISTR 357,"[6]; 80 °C, 1 h",0.00 ± 0.00 %
same,% Residual Activity of NNS5-6 AMP against P. aeruginosa TISTR 357,"[6]; 80 °C, 6 h",0.00 ± 0.00 %
same,% Residual Activity of NNS5-6 AMP against P. aeruginosa TISTR 357,"[6]; 80 °C, 12 h",0.00 ± 0.00 %
same,% Residual Activity of NNS5-6 AMP against P. aeruginosa TISTR 357,"[6]; 100 °C, 1 h",0.00 ± 0.00 %
same,% Residual Activity of NNS5-6 AMP against P. aeruginosa TISTR 357,"[6]; 100 °C, 6 h",0.00 ± 0.00 %
same,% Residual Activity of NNS5-6 AMP against P. aeruginosa TISTR 357,"[6]; 100 °C, 12 h",0.00 ± 0.00 %
same,% Residual Activity of NNS5-6 AMP against P. aeruginosa TISTR 357,"[6]; autoclave 121 °C, 15 psi, 15 min (same value in 1 h, 6 h and 12 h)",0.00 ± 0.00 %
same,% Residual Activity of NNS5-6 AMP against P. aeruginosa TISTR 357,"[6]; autoclave 121 °C, 15 psi, 30 min (same value in 1 h, 6 h and 12 h)",0.00 ± 0.00 %
same,% Residual Activity of NNS5-6 AMP against P. aeruginosa TISTR 357,"[7]; with 1% SDS, 1 h",116.77 ± 1.80 %
same,% Residual Activity of NNS5-6 AMP against P. aeruginosa TISTR 357,"[7]; with 1% SDS, 6 h",122.52 ± 1.86 %
same,% Residual Activity of NNS5-6 AMP against P. aeruginosa TISTR 357,"[7]; with 1% SDS, 12 h",119.19 ± 1.53 %
same,% Residual Activity of NNS5-6 AMP against P. aeruginosa TISTR 357,"[7]; with 1% Triton X-100, 1 h",116.17 ± 0.60 %
same,% Residual Activity of NNS5-6 AMP against P. aeruginosa TISTR 357,"[7]; with 1% Triton X-100, 6 h",120.28 ± 1.53 %
same,% Residual Activity of NNS5-6 AMP against P. aeruginosa TISTR 357,"[7]; with 1% Triton X-100, 12 h",120.81 ± 1.53 %
same,% Residual Activity of NNS5-6 AMP against P. aeruginosa TISTR 357,"[8]; pH 1.2, 1 h",89.62 ± 1.85 %
same,% Residual Activity of NNS5-6 AMP against P. aeruginosa TISTR 357,"[8]; pH 1.2, 6 h",83.83 ± 1.72 %
same,% Residual Activity of NNS5-6 AMP against P. aeruginosa TISTR 357,"[8]; pH 1.2, 12 h",81.14 ± 1.71 %
same,% Residual Activity of NNS5-6 AMP against P. aeruginosa TISTR 357,"[8]; pH 4.5, 1 h",97.31 ± 0.33%
same,% Residual Activity of NNS5-6 AMP against P. aeruginosa TISTR 357,"[8]; pH 4.5, 6 h",95.69 ± 1.75%
same,% Residual Activity of NNS5-6 AMP against P. aeruginosa TISTR 357,"[8]; pH 4.5, 12 h",95.62 ± 1.19%
same,% Residual Activity of NNS5-6 AMP against P. aeruginosa TISTR 357,"[8]; pH 6.8, 1 h",97.31 ± 3.33%
same,% Residual Activity of NNS5-6 AMP against P. aeruginosa TISTR 357,"[8]; pH 6.8, 6 h",96.46 ± 0.57%
same,% Residual Activity of NNS5-6 AMP against P. aeruginosa TISTR 357,"[8]; pH 6.8, 12 h",96.00 ± 0.57%
same,% Residual Activity of NNS5-6 AMP against P. aeruginosa TISTR 357,"[8]; pH 7.4, 1 h",98.65 ± 0.58%
same,% Residual Activity of NNS5-6 AMP against P. aeruginosa TISTR 357,"[8]; pH 7.4, 6 h",98.18 ± 1.15%
same,% Residual Activity of NNS5-6 AMP against P. aeruginosa TISTR 357,"[8]; pH 7.4, 12 h",98.48 ± 0.66%
same,% Residual Activity of NNS5-6 AMP against P. aeruginosa TISTR 357,"[8]; pH 8.0, 1 h",99.23 ± 1.15%
same,% Residual Activity of NNS5-6 AMP against P. aeruginosa TISTR 357,"[8]; pH 8.0, 6 h",97.22 ± 0.98%
same,% Residual Activity of NNS5-6 AMP against P. aeruginosa TISTR 357,"[8]; pH 8.0, 12 h",98.48 ± 0.87%
same,% Residual Activity of NNS5-6 AMP against P. aeruginosa TISTR 357,"[8]; pH 10.0, 1 h",98.85 ± 1.20%
same,% Residual Activity of NNS5-6 AMP against P. aeruginosa TISTR 357,"[8]; pH 10.0, 6 h",97.42 ± 0.82%
same,% Residual Activity of NNS5-6 AMP against P. aeruginosa TISTR 357,"[8]; pH 10.0, 12 h",98.10 ± 1.44%
same,% Residual Activity of NNS5-6 AMP against P. aeruginosa TISTR 357,"[8]; pH 12.0, 1 h",94.31 ± 0.68 %
same,% Residual Activity of NNS5-6 AMP against P. aeruginosa TISTR 357,"[8]; pH 12.0, 6 h",93.40 ± 0.78 %
same,% Residual Activity of NNS5-6 AMP against P. aeruginosa TISTR 357,"[8]; pH 12.0, 12 h",90.10 ± 2.38 %
same,% Residual Activity of NNS5-6 AMP against P. aeruginosa TISTR 357,"[8]; pH 14.0, 1 h",90.77 ± 0.88 %
same,% Residual Activity of NNS5-6 AMP against P. aeruginosa TISTR 357,"[8]; pH 14.0, 6 h",84.40 ± 1.15 %
same,% Residual Activity of NNS5-6 AMP against P. aeruginosa TISTR 357,"[8]; pH 14.0, 12 h",79.05 ± 1.75 %
same,% Residual Activity of NNS5-6 AMP against P. aeruginosa TISTR 357,[9]; 1 h,96.08 ± 3.41 %
same,% Residual Activity of NNS5-6 AMP against P. aeruginosa TISTR 357,[9]; 6 h,86.58 ± 1.22 %
same,% Residual Activity of NNS5-6 AMP against P. aeruginosa TISTR 357,[9]; 12 h,83.62 ± 1.34 %
same,% Residual Activity of NNS5-6 AMP against P. aeruginosa TISTR 357,[10]; 1 h,99.38 ± 0.95%
same,% Residual Activity of NNS5-6 AMP against P. aeruginosa TISTR 357,[10]; 6 h,99.42 ± 1.22%
same,% Residual Activity of NNS5-6 AMP against P. aeruginosa TISTR 357,[10]; 12 h,98.46 ± 0.88%
